Each structure is given as a SMILES string. ≈ marks a conversion by molar mass, not a printed value.

For this data set the following is noted: buffer; pH 7.4; 200.0 µM.
The molecule `CCOc1ccc(S(=O)(=O)/N=C(/c2ccccc2)N(C)C)cc1` had a kinetic solubility above 49.9 µg/mL.

On to `COc1ccc(N2CCN(c3cc(C)c4ccccc4n3)CC2)cc1`, for which the kinetic solubility is below 0.2 µg/mL.

Regarding `CCCCN(C(=O)COC(=O)c1ccccc1)c1c(N)n(CCC)c(=O)[nH]c1=O`, the solubility (kinetic) was above 60.4 µg/mL.

Molecule `Cc1cc(OCC(O)CNC(C)c2ccccc2)ccc1C(C)C.Cl` (configuration not stated) showed a solubility (kinetic) of 45.3 µg/mL.

As to `CC#CC(=O)NC1CCCN(C2Cc3ccccc3C2)C1` (configuration not stated), the solubility (kinetic) was above 42.4 µg/mL.

For `CC(C)N1CCN(Cc2cc3c(cc2Cl)OCO3)CC1CCO` (configuration not stated), the solubility (kinetic) was 39.9 µg/mL (≈ 117 µM).

For the molecule `COc1cccc(C(=O)Nc2ccc(C(=O)c3ccccc3)cc2)c1`, the kinetic solubility was 7.4 µg/mL (≈ 22.3 µM).

The molecule `COc1ccc(N2CCN(C(=O)COCC(=O)O)CC2)cc1` came in with a solubility (kinetic) above 46.3 µg/mL.

As for `CCCCc1nc2sc3c(=O)[nH]cnc3c2c2c1CCCC2`, the kinetic solubility is below 0.2 µg/mL.

Consider `O=C(C(c1ccccc1)c1ccccc1)N1CC[C@@]2(O)CCCC[C@H]2C1`, for which the kinetic solubility is above 52.4 µg/mL.

For `CCC1CCCCN1C(=O)COc1ccc2c(c1)OCO2` (configuration not stated), the solubility (kinetic) is above 43.7 µg/mL.

`Cc1cccc(C)c1NC(=O)NC1(C(=O)N2CCCCC2)CCCCC1` had a solubility (kinetic) of 45.6 µg/mL (≈ 128 µM).

The molecule `CCCOc1ccc(CN2CCOCC2)cc1OC.Cl` gave a kinetic solubility above 45.3 µg/mL.

For the molecule `O=C1Nc2ccc(Br)cc2C1=C1CCCCC1`, the kinetic solubility was determined as 7.4 µg/mL (≈ 25.3 µM).

As to `O=C(Nc1sc2c(c1C(=O)O)CCC2)c1ccccc1F`, the solubility (kinetic) was above 45.8 µg/mL.

In turn, `O=C(O)COc1ccc(/C=N/O)cc1Br` gave a kinetic solubility of 41 µg/mL (≈ 150 µM).

`CCCC(=O)Nc1cc2c(cc1C(C)=O)OCCO2` returned a solubility (kinetic) above 39.5 µg/mL.

For the molecule `Cc1ccc(OCC(O)CNC(C)c2ccccc2)cc1C.Cl` (configuration not stated), the solubility (kinetic) is 45.9 µg/mL.

`Cc1ccc(S(=O)(=O)NC2CC(C)(C)NC(C)(C)C2)cc1C` showed a kinetic solubility above 48.7 µg/mL.

Molecule `CCNc1nc(SC(C)C(=O)Nc2ccccc2)nc(N(C)C)n1` (configuration not stated) registered a solubility (kinetic) of 3.4 µg/mL (≈ 9.81 µM).

Molecule `O=C(/C=C/c1ccc(Cl)cc1)NCCCN1CCOCC1` displayed a solubility (kinetic) above 46.3 µg/mL.

`O=C1OCc2ccc(NS(=O)(=O)c3ccc(C(F)(F)F)cc3)cc21`: the kinetic solubility was above 53.6 µg/mL.

In turn, `Cc1[nH]c2ccccc2c1C(C[N+](=O)[O-])c1cccc(O)c1` (configuration not stated) gave a kinetic solubility of 40.1 µg/mL (≈ 135 µM).

In the case of `CN1CCN(c2ccc(NC(=O)c3ccco3)cc2Cl)CC1`, the solubility (kinetic) was 45.3 µg/mL (≈ 142 µM).

Turning to `Cc1ccccc1C(=O)NCC(=O)N1CCN(C/C=C/c2ccccc2)CC1`, the solubility (kinetic) is above 56.6 µg/mL.

For `Cc1cccc(C(=O)N/C(=C\c2ccc(C)o2)C(=O)O)c1`, the solubility (kinetic) was above 42.8 µg/mL.

Turning to `c1ccc(Nc2nc(-c3ccccc3)nc3ccccc23)cc1`, the kinetic solubility was found to be 2.5 µg/mL (≈ 8.41 µM).

`O=C(Nc1ccccc1)Nc1cccc(-c2cn3cccnc3n2)c1` registered a solubility (kinetic) of 1 µg/mL (≈ 3.04 µM).

Turning to `CCN1CCN(C(=O)/C=C/c2ccc(C)cc2)CC1`, the solubility (kinetic) is above 38.8 µg/mL.

The molecule `CC(=O)Nc1ccc(-c2cc(C(=O)O)c3ccc(C)cc3n2)cc1` yielded a kinetic solubility above 48.1 µg/mL.

In turn, `Cc1cc(C)c(Nc2ncnc(N)n2)c(C)c1` had a solubility (kinetic) above 34.4 µg/mL.

The molecule `COc1ccc(NC(=O)C(=O)Nc2cccc3cccnc23)cc1OC` came in with a kinetic solubility below 0.3 µg/mL.

`O=C(CNC(=O)c1ccc(Cl)cc1Cl)OCCOc1ccccc1F` had a solubility (kinetic) of 51.2 µg/mL (≈ 133 µM).

In turn, `Cc1ccc(NC(=O)C2CCC(N3C(=O)C4CCCCC4C3=O)CC2)cc1` (configuration not stated) showed a kinetic solubility of 52.2 µg/mL (≈ 142 µM). This solubility kinetic and that of the molecule before are within 1.5-fold of each other.

`Cc1cnc([N+](=O)[O-])n1CCOC(=O)NC(=O)c1c(F)cccc1F` returned a kinetic solubility above 53.1 µg/mL.

In turn, `Clc1ccccc1Cc1noc(CN2CCN3CCCC3C2)n1` (configuration not stated) registered a solubility (kinetic) above 49.9 µg/mL.

For the molecule `CCNC(=S)N1CCN(C(=O)C(Cc2ccccc2)NC(C)=O)CC1` (configuration not stated), the kinetic solubility was above 54.4 µg/mL.

As for `S=C(NCc1cccnc1)NCc1cccnc1`, the solubility (kinetic) turned out to be 37.4 µg/mL (≈ 145 µM).

Molecule `CCC(C)NC(=O)COc1ccc(OCc2ccccc2)cc1` (configuration not stated) had a kinetic solubility of 4.8 µg/mL (≈ 15.3 µM). This solubility kinetic lies about 7.8-fold lower than the previous one.

Turning to `O=C(Nc1ccc(N2CCOCC2)cc1)c1cccc(S(=O)(=O)N2CCOCC2)c1`, the solubility (kinetic) was found to be 15.1 µg/mL (≈ 35 µM).

`O=C(NCC1CC1)Nc1ccc(Cl)cc1` showed a solubility (kinetic) of 18.9 µg/mL (≈ 84.1 µM).

In turn, `CC(C)c1ccccc1NC(=O)CC1(CC(=O)O)CCCC1` registered a kinetic solubility above 45.5 µg/mL.

Take `Cc1cccc(OCc2ccc(C(=O)N3CCOCC3)o2)c1`: the kinetic solubility is above 45.2 µg/mL.

In the case of `Cc1cc(/C(N)=N/OC(=O)Nc2ccc(Cl)cc2)no1`, the kinetic solubility is 15.9 µg/mL (≈ 54 µM).

Molecule `COc1ccc(NC(=O)Nc2ccc(F)cc2)cn1` gave a solubility (kinetic) above 39.2 µg/mL.

Molecule `CC(C)c1ccc(NC(=O)CN2C(=O)NC3(CCCCCCC3)C2=O)cc1` showed a solubility (kinetic) of 16.4 µg/mL (≈ 44.1 µM).

`O=C(CCCN1C(=O)c2ccccc2C1=O)Nc1ccccc1` came in with a solubility (kinetic) above 46.3 µg/mL.

In turn, `CCOCCCNC(=O)c1cc2c(=O)[nH]c3ccccc3c2s1` returned a kinetic solubility of 1.7 µg/mL (≈ 5.15 µM).

Take `O=C(Nc1ccccc1)Nc1scc2c1c(=O)oc1ccccc12`: the solubility (kinetic) is below 0.4 µg/mL.

For `Cn1cc(S(=O)(=O)NCc2ccc3c(c2)OCO3)c(C(F)(F)F)n1`, the kinetic solubility is above 54.5 µg/mL.

Molecule `O=C(NC1CCCCCCC1)c1cccnc1` showed a solubility (kinetic) of 32.5 µg/mL (≈ 140 µM).

`Cc1cc(=O)n(Cc2ccccc2)c2ccccc12` displayed a kinetic solubility above 37.4 µg/mL.

The record behind these values is PubChem BioAssay AID1996.
